Tests used:
[1] = biological target: T1, poly(ADP-ribose) polymerase 1 (PARP-1) (Homo sapiens, UniProt P09874); assay: real-time fluorescence anisotropy activity assay, purified PARP-1 with DNA duplex; competitive kinetics vs NAD+; type: biochemical
T1 construct: gene PARP1

[2] = biological target: T1, poly(ADP-ribose) polymerase 1 (PARP-1); assay: fluorescence anisotropy kinetics, reaction rate vs NAD+ concentration ([…]); type: biochemical

T1 sequence (P09874 2-1014): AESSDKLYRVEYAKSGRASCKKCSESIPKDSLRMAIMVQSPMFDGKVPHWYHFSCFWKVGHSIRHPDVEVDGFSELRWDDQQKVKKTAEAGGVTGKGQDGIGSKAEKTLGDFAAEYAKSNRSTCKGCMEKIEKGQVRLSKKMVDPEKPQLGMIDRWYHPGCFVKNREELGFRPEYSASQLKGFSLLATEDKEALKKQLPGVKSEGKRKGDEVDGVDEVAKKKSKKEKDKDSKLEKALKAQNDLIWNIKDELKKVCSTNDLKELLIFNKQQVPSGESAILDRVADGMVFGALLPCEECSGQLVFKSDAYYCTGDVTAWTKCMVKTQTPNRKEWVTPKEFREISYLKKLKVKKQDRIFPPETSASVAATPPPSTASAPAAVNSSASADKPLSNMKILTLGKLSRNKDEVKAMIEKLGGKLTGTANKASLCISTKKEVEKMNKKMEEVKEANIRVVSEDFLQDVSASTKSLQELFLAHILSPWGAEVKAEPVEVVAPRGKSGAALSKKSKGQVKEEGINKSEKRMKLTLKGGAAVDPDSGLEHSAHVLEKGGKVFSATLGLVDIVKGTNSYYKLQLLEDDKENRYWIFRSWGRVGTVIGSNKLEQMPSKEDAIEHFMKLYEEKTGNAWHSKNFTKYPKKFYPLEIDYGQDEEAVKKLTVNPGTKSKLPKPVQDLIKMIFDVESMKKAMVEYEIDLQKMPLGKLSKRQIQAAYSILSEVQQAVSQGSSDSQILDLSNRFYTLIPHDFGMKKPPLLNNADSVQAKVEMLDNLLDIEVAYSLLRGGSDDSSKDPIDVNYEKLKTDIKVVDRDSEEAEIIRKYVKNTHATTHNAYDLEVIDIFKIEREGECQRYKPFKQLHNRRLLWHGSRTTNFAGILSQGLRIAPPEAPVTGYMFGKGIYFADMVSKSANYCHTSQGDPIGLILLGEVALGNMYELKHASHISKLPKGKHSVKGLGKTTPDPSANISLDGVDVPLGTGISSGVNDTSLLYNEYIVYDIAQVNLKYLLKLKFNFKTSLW

Row | Ki [1] | Structure (SMILES) | fluorescence anisotropy kinetics, reaction rate vs NAD+ concentration (0-2500 μM) [2]
1 | 61 ± 9 µM | Cn1cnc2nc(N)[nH]c(=O)c21 [7-MG, 7-methylguanine] | 
2 |  | NC(=O)c1ccc[n+]([C@@H]2O[C@H](COP(=O)([O-])OP(=O)(O)OC[C@H]3O[C@@H](n4cnc5c(N)ncnc54)[C@H](O)[C@@H]3O)[C@@H](O)[C@H]2O)c1 [NAD^+] | Dependence of the PARP-1-catalyzed reaction rate on the NAD^+ concentration at different concentrations of 7-MG

Reference: paper PMC7139824, “Molecular Mechanisms of PARP-1 Inhibitor 7-Methylguanine” (International Journal of Molecular Sciences, 2020)
